Results taken from patent US4590203A, “Derivatives of thiophene-2-carboxylic acid and their pharmaceutically acceptable acid or base addition salts and use in treatment of conditions caused by thromboxane A2” (Laevosan-Gesellschaft m.b.H. & Co. KG, priority 1982, dated 1986).

Experiments:
[1] = biological target: T1, thromboxane synthetase (Homo sapiens, UniProt P24557); assay: inhibition of thromboxane (TX) formation in thrombin stimulated washed platelets, TXB2 specific radioimmunoassay; format: cell-based; conditions: for IC50: 0,6 IU/ml thrombin stimulated human washed platelets, TXB2 specific radioimmunoassay; for inhibition of TXB2-formation: concentration not given; for specificity as inhibitor of thromboxane synthetase: in vitro-study, inhibition of TX formation on platelet aggregation
T1 construct: thrombin stimulated human washed platelets; endogenous in cells; host or cells: human washed platelets
T1 sequence (P24557 1-533): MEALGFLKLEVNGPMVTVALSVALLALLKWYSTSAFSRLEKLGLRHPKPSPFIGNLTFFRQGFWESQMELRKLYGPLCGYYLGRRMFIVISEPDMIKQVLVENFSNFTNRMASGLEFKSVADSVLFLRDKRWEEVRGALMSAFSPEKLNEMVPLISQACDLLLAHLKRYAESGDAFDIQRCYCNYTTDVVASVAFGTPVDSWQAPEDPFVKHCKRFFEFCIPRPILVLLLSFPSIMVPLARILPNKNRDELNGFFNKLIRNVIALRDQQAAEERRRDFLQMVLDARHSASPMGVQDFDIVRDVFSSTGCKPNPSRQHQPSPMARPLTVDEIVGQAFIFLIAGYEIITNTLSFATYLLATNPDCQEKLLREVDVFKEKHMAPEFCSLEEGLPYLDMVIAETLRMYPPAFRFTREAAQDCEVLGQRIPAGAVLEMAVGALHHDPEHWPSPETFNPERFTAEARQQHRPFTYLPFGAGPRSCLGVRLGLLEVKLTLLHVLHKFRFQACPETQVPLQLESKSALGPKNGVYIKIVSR
Procedure: (§1) In 0,6 IU/ml thrombin stimulated human washed platelets the IC50 (μM) for inhibition of TX formation (measured by TXB2 specific radioimmunoassay) was 1,1 for LG 82-4-00 and 1,3 for LG 82-4-01. The two substances inhibited TXB2 -formation and 1-2 μg/ml collagen induced platelet aggregation by more than 95%.

[2] = tested on: platelet aggregation; assay: collagen induced platelet aggregation; format: cell-based, human; conditions: 1-2 μg/ml collagen; concentration not given
Procedure: as §1

[3] = tested on: platelet aggregation; assay: proaggregatory activity and primary wave ADP aggregation; format: cell-based
From the text: Neither LG 82-4-00 nor LG 82-4-01 had vasoconstrictor, proaggregatory or antagonistic activity or affected primary wave ADP aggregation (P >0,05).

| IC50 [1] [nM] | inhibition of TXB2-formation [1] | Compound | specificity as inhibitor of thromboxane synthetase [1] | inhibition of collagen induced platelet aggregation [2] | proaggregatory activity [3] |
| --- | --- | --- | --- | --- | --- |
| 1100 | more than 95% | Cl.O=C(O)c1ccc(OCCn2ccnc2)s1 [LG 82-4-00, 5-[2-(1-Imidazolyl)-1-ethoxy]thiophene-2-carboxylic acid hydrochloride] | specific inhibitors of thromboxane synthetase | more than 95% | Neither |
| 1300 | more than 95% | Cl.O=C(O)c1cc(Cl)c(OCCn2ccnc2)s1 [LG 82-4-01, 4-Chloro-5-[2-(1-imidazolyl)-1-ethoxy]-thiophene-2-carboxylic acid hydrochloride] | specific inhibitors of thromboxane synthetase | more than 95% | Neither |
